Source: the OPERA property sets (Mansouri et al. 2018)

Details: not given

Row | Compound | boiling point [°C] | log10 vapour pressure (mmHg) | melting point [°C] | ready biodegradability | log10 Koc (L/kg) | log10 Henry constant (atm·m³/mol) | log10 Koa | log10 biodegradation half-life (days)
1 | O=C(O)C(F)(F)C(F)(F)C(F)(F)C(F)(F)C(F)(F)C(F)(F)F | 177 | -0.876 |  |  |  |  |  | 
2 | Cc1cccc(C)c1NC(=O)C1CCCCN1C (centres undefined) |  |  | 150 |  |  |  |  | 
3 | C[C@@H](O)C1CC1 | 124 |  | -32.1 |  |  |  |  | 
4 | CNC(=O)CC(C)=O |  |  |  | readily biodegradable |  |  |  | 
5 | ClC[Si](Cl)(Cl)Cl | 118 |  |  |  |  |  |  | 
6 | CCOC=Nc1ccccc1 | 214 |  |  |  |  |  |  | 
7 | CC(=O)c1cc(C)ccc1C | 232 |  | -18.1 |  |  |  |  | 
8 | Cc1cc2cccc(C)c2cc1C | 285 |  |  |  |  |  |  | 
9 | CCCC(C)(O)C(C)(C)C (centres undefined) | 170 |  |  |  |  |  |  | 
10 | Nc1cccc(Cl)c1C(=O)O |  |  | 159 |  |  |  |  | 
11 | Cc1ccc(C(C)C)cc2c(C)ccc1-2 |  |  | 31.5 |  |  |  |  | 
12 | CCCCCCOCC | 143 |  |  |  |  |  |  | 
13 | O=[N+]([O-])c1cc(Cl)cc(Cl)c1O |  |  | 122 | not readily biodegradable |  |  |  | 
14 | CCCF | 2.5 | 3.3 | -159 |  |  |  |  | 
15 | CC1=C(C)C(=O)OC1=O | 223 |  | 96 |  |  |  |  | 
16 | CCCN(CCC)S(=O)(=O)c1ccc(C(=O)O)cc1 |  |  | 195 |  |  |  |  | 
17 | Brc1ccncc1 |  |  | 0.5 |  |  |  |  | 
18 | CC1(C)CCC(C)(C)C1 | 118 |  | -88.4 |  |  |  |  | 
19 | ClC=CCc1ccccc1 | 211 |  |  |  |  |  |  | 
20 | CC1CCC(C)(C)C1 (centres undefined) | 105 | 1.05 | -142 |  |  |  |  | 
21 | CCC1C=CCCC1 (centres undefined) | 134 |  |  |  |  |  |  | 
22 | NNc1ccc(Br)cc1 |  |  | 108 |  |  |  |  | 
23 | CC(C)N=C=NC(C)C | 147 |  |  |  |  |  |  | 
24 | NNC(=O)c1ccccc1[N+](=O)[O-] |  |  | 124 |  |  |  |  | 
25 | CCc1ccc2cc(O)c(O)cc2c1 |  |  | 149 |  |  |  |  | 
26 | N#CC=Cc1ccco1 |  |  | 38 |  |  |  |  | 

Row | Compound | boiling point [°C] | log10 vapour pressure (mmHg) | melting point [°C] | ready biodegradability | log10 Koc (L/kg) | log10 Henry constant (atm·m³/mol) | log10 Koa | log10 biodegradation half-life (days)
27 | CO[Si](OC)(OC)OC | 121 |  |  |  |  |  |  | 
28 | CCOC(=O)C(Br)C(C)C (centres undefined) | 186 |  |  |  |  |  |  | 
29 | S=C=Nc1cccc(Cl)c1 | 250 |  |  |  |  |  |  | 
30 | CCCCCC(=NO)C(C)=O |  |  | 59 |  |  |  |  | 
31 | O=P(O)(O)CCP(=O)(O)O |  |  | 218 |  |  |  |  | 
32 | CCCCCCCC(=O)OC(C)C |  | -0.963 |  |  |  |  |  | 
33 | CSc1c(N)nc(N)nc1Cl |  |  |  |  | 2.08 |  |  | 
34 | C=C(CC)CC | 64.7 | 2.24 | -132 |  |  |  |  | 
35 | Clc1c(Cl)c(Cl)c(-c2c(Cl)c(Cl)c(Cl)c(Cl)c2Cl)c(Cl)c1Cl |  |  |  | not readily biodegradable |  |  |  | 
36 | Nc1ccc(N=O)cc1 |  |  | 174 |  |  |  |  | 
37 | Nc1c([N+](=O)[O-])ccc(Oc2ccccc2)c1Cl |  | -6.92 | 81.5 |  |  |  |  | 
38 | CC(CC(C(N)=O)(c1ccccc1)c1ccccc1)N(C)C (centres undefined) |  |  | 137 |  |  |  |  | 
39 | O=C(O)CCCCCCCCCCCCCCCCCCC(=O)O |  |  | 126 |  |  |  |  | 
40 | CNC(C)=O | 205 | -0.356 | 28 | readily biodegradable |  |  |  | 
41 | NC(=O)c1ccccc1C(N)=O |  |  | 222 |  |  |  |  | 
42 | CCOC(=O)C(C)O (centres undefined) | 154 | 0.574 |  |  |  |  |  | 
43 | CCOC(=O)N1CCNCC1 | 237 |  |  |  |  |  |  | 
44 | Oc1ccc(O)c(Cc2ccccc2)c1 |  |  | 106 |  |  |  |  | 
45 | CCCCC(C)Cl (centres undefined) | 122 | 1.13 |  |  |  |  |  | 
46 | CC(C)(C)C(=O)c1ccccc1 | 220 |  |  |  |  |  |  | 
47 | COCC1CO1 (centres undefined) | 113 |  |  |  |  |  |  | 
48 | COc1cc2c(cc1O)C(Cc1ccc(OC)c(OC)c1)N(C)CC2 (centres undefined) |  |  | 127 |  |  |  |  | 
49 | COc1cccc(OC)c1OC | 235 |  | 48.5 |  |  |  |  | 
50 | C[C@@H]1CC2=CC(=O)CC[C@]2(C)[C@H]2CC[C@@]3(C)[C@@H](CC[C@]3(C)O)[C@H]12 |  |  | 146 |  |  |  |  | 
51 | NS(=O)(=O)c1cc2c(cc1C(F)(F)F)NCNS2(=O)=O |  |  | 270 |  |  |  |  | 
52 | CCOc1c(N2CCOCC2)cnn(C)c1=O |  |  | 90 |  |  |  |  | 

Row | Compound | boiling point [°C] | log10 vapour pressure (mmHg) | melting point [°C] | ready biodegradability | log10 Koc (L/kg) | log10 Henry constant (atm·m³/mol) | log10 Koa | log10 biodegradation half-life (days)
53 | Cc1cc(C(C)(C)C)cc(C(C)(C)C)c1O | 269 |  | 51 |  |  |  |  | 
54 | CCCCCCCCCC(=O)OCC | 242 |  | -20 |  |  |  |  | 
55 | CCNC1=NC(=O)C(c2ccccc2)O1 (centres undefined) |  |  | 148 |  |  |  |  | 
56 | CON=O | -12 |  | -16 |  |  |  |  | 
57 | CN(O)CCO |  |  |  | readily biodegradable |  |  |  | 
58 | BrC(Br)c1ccccc1OCC1CO1 (centres undefined) |  |  |  | not readily biodegradable |  |  |  | 
59 | Clc1ccc(Cl)c(Br)c1 | 226 |  | 35 |  |  |  |  | 
60 | CCOC(CN)OCC | 163 |  | -78 |  |  |  |  | 
61 | CC(C)=C(C)Cl | 96 |  |  |  |  |  |  | 
62 | Clc1cccc(Cl)c1-c1c(Cl)cccc1Cl |  |  |  |  | 4.9 | -3.7 |  | 
63 | Brc1cc(Br)c(Br)s1 | 260 |  | 29 |  |  |  |  | 
64 | C=C[C@H]1C[N@@]2CC[C@H]1C[C@H]2[C@H](O)c1ccnc2ccc(O)cc12 |  |  | 202 |  |  |  |  | 
65 | Cc1cc(OC(=O)N(C)C)n(C(C)C)n1 |  | -3 |  |  |  |  |  | 
66 | CCCCCC(C)=O | 151 | 0.586 | -35 |  |  | -3.77 | 4.15 | 
67 | c1ccc2c(c1)sc1ccccc12 | 332 | -3.69 | 97 | not readily biodegradable | 4.05 |  |  | 1.56
68 | CC(=O)OCC#N | 200 |  |  |  |  |  |  | 
69 | CCOC(=O)CCCCCC(=O)OCC | 254 | -2.51 | -24 |  |  |  |  | 
70 | CCNc1nc(NC(C)C(C)C)nc(SC)n1 (centres undefined) |  | -5.85 | 65 |  |  |  |  | 
71 | CC(C)(C)S | 64 | 2.26 | -0.5 |  |  |  |  | 
72 | CCCCC(CC)COC(=O)CCCCC(=O)OCC(CC)CCCC (centres undefined) | 417 | -6.07 | -67.8 | readily biodegradable | 4.19 | -6.36 |  | 
73 | O=[N+]([O-])C(F)(F)F |  | 3.85 |  |  |  |  |  | 
74 | Nc1ccc2[nH]ncc2c1 |  |  | 176 |  |  |  |  | 
75 | CC(C)(O)C(F)(F)F | 81 |  |  |  |  |  |  | 
76 | C=C(C)CCC=C(C)C | 143 |  | -70 |  |  |  |  | 
77 | Cc1ccc(N)cc1N | 292 | -3.77 | 99 | not readily biodegradable |  |  |  | 
78 | CC(=O)Oc1cc(C)ccc1C | 237 |  |  |  |  |  |  | 

Row | Compound | boiling point [°C] | log10 vapour pressure (mmHg) | melting point [°C] | ready biodegradability | log10 Koc (L/kg) | log10 Henry constant (atm·m³/mol) | log10 Koa | log10 biodegradation half-life (days)
79 | CCOC(=O)Nc1ccccc1 | 238 |  | 53 |  | 1.82 |  |  | 
80 | CC[C@@H]1CCC[C@H]1C | 125 | 1.3 | -106 |  |  |  |  | 
81 | C[C@@H](N)[C@@H](O)c1ccccc1 |  |  | 101 |  |  |  |  | 
82 | CCCCCc1ccc2c(c1)C(=O)c1ccccc1C2=O |  |  |  | not readily biodegradable |  |  |  | 
83 | Clc1cc(Cl)c2c(c1Cl)Oc1c(Cl)cc(Cl)c(Cl)c1O2 |  | -10.3 | 238 |  |  |  |  | 
84 | CC=CC(=O)Cl | 124 |  |  |  |  |  |  | 
85 | C[C@@H]1CC[C@@]2(OC1)O[C@H]1C[C@H]3[C@@H]4CC[C@H]5C[C@@H](O)CC[C@]5(C)[C@H]4CC[C@]3(C)[C@H]1[C@@H]2C |  |  | 197 |  |  |  |  | 
86 | CCCCNC(=O)OCC(C)(CCC)COC(N)=O (centres undefined) |  |  | 50 |  |  |  |  | 
87 | O=S(=O)(O)c1cc(S(=O)(=O)O)c2c(/N=N\c3ccc(S(=O)(=O)O)c4ccccc34)c(O)ccc2c1 |  |  |  | not readily biodegradable |  |  |  | 
88 | CCOOCC | 65 |  | -70 |  |  |  |  | 
89 | CCCCCC(=O)c1ccccc1 | 265 |  | 27 |  |  |  |  | 
90 | C=CCNCC=C | 111 | 1.31 | -88.4 |  |  |  |  | 
91 | Cc1ccc(Nc2ccc(Nc3ccc(C)cc3)c3c2C(=O)c2ccccc2C3=O)cc1 |  |  | 218 |  |  |  |  | 
92 | C=C(C)C | -6.9 | 3.36 | -140 |  |  | -0.662 |  | 
93 | CCSC(=O)N(CC)C1CCCCC1 |  | -2.7 | 11.5 | not readily biodegradable | 2.54 |  |  | 
94 | CCCCB(Cl)CCCC | 173 |  |  |  |  |  |  | 
95 | CC(C)(Oc1ccccc1)C(=O)O |  |  | 98.5 |  |  |  |  | 
96 | O=c1n(-c2ccccc2)c(=O)n(-c2ccccc2)c(=O)n1-c1ccccc1 |  |  | 285 |  |  |  |  | 
97 | ClC(I)I |  |  | -4 |  |  |  |  | 
98 | Cc1ccc2oc(C)nc2c1 | 218 |  |  |  |  |  |  | 
99 | Nc1nc2ccccc2[nH]1 |  |  | 230 |  |  |  |  | 
100 | CC(=O)CC(C)C | 116 | 1.3 | -84 | readily biodegradable |  |  |  | 
101 | O=[N+]([O-])c1cccc(Br)c1 | 256 | -1.15 | 56 |  |  |  |  | 

Same assay, conditions: fish

Row | Compound | log10 BCF | log10 biotransformation half-life (days)
102 | Clc1cc2ccccc2c2ccccc12 | 3.49 | 1.8
103 | O=[N+]([O-])c1cc(Cl)cc(Cl)c1O | 1.32 | 
104 | Cc1cc(C)c2ccccc2c1 |  | 0.51
105 | Clc1c(Cl)c(Cl)c(-c2c(Cl)c(Cl)c(Cl)c(Cl)c2Cl)c(Cl)c1Cl | 4.24 | 2.86
106 | CC(=CC(C)(C)C)CC(C)(C)C |  | 0.7
107 | Clc1cccc(Cl)c1-c1c(Cl)cccc1Cl | 3.85 | 
108 | c1ccc2c(c1)sc1ccccc12 | 3.05 | 0.83
109 | Clc1cc(Cl)c(Oc2cc(Cl)c(Cl)cc2Cl)cc1Cl |  | 1.98
110 | Cc1ccc(N)cc1N | 1.7 | 
111 | CCCCCc1ccc2c(c1)C(=O)c1ccccc1C2=O | 2.94 | 0.2
